Laboratory results published in publication PMC9460506, “Polyphenol-Rich Date Palm Fruit Seed (Phoenix Dactylifera L.) Extract Inhibits Labile Iron, Enzyme, and Cancer Cell Activities, and DNA and Protein Damage” (Nutrients, 2022).
Converted amounts (≈) assume the structure as drawn.

Experiments:
[1] = Total antioxidant activity (TAC, phosphomolybdate); conditions: tested 0.1-5 mg/mL
Procedure: In brief, 0.3 mL of a reagent composed of sodium phosphate 28 mM, sulphuric acid 0.6 M, and ammonium molybdate 4 mM were added to 0.1 mL tested samples and incubated at 95 °C for 90 min. After cooling, the mixture was measured at 695 nm using a Varian CARY 50 Scan UV–VIS Spectrophotometer with a Cary 50 Microplate Reader Accessory (Varian, Inc., Walnut Creek, CA, USA). A higher antioxidant capacity is correlated with a higher absorbance value.

[2] = system: Bovine Serum Albumin (BSA)
Procedure: Bovine Serum Albumin (BSA) was oxidized by AAPH using a method outlined earlier [18]. […] The control sample was without AAPH.
Then the mixture was loaded and separated using SDS-PAGE 10% after reduction conditions for 5 min, at 100 °C. The free stained gels’ images were taken with a ChemiDoc MV gel documentation system (Bio-Rad, Hercules, CA, USA). The band intensity determined the protein damage amount for each band using Image Lab 4.1 Software version 6.1.0 (Bio-Rad, Hercules, CA, USA).

[3] = DPPH free radical-scavenging test; conditions: tested 0.1 to 5 mg/mL
Procedure: They were determined to be effective against 1,1-diphenyl-2, picrylhydrazyl radicals. The results of the study were compared with those of a previously reported method. […] The absorbance was conducted using a Varian CARY 50 Scan UV–VIS Spectrophotometer with a Cary 50 Microplate Reader Accessory (Varian, Inc., Walnut Creek, CA, USA).

[4] = Nitric oxide radical (NO) scavenging test (Griess reaction)
Procedure: In brief, 3 mL of the reaction mixture (2 mL of 10 mM sodium nitroprusside, 0.5 mL phosphate buffer saline, and 0.5 of tested samples). The mixture was incubated for 150 min at 25 °C. Then 0.5 mL of the mixture was mixed with 1 mL of (sulfanilic acid reagent: 0.33% in 20% glacial acetic acid). After 5 min, 1 mL of naphthyl ethylene diamine dihydrochloride 0.1% was added. After 30 min at room temperature, the absorbance was conducted using a Varian CARY 50 Scan UV–VIS Spectrophotometer with a Cary 50 Microplate Reader Accessory (Varian, Inc., Walnut Creek, CA, USA) at 540 nm. The nitrite percentage was determined by considering Equation 1 described above.

[5] = Ferric-reducing/antioxidant power (FRAP) test; conditions: tested 0.1 to 5 mg/mL
Procedure: The FRAP reagent proportions consisted of 1:1:10 (v/v/v) of TPTZ 10 mM solution in 40 mM HCl, FeCl3 20 mM, and acetate buffer pH 3.6, 0.3 M. Then, 1 mL of the tested sample was mixed with 2 mL of freshly prepared FRAP reagent. The mixtures were incubated for 30 min at 37 °C. The absorbance was conducted using a Varian CARY 50 Scan UV–VIS Spectrophotometer with a Cary 50 Microplate Reader Accessory (Varian, Inc., Walnut Creek, CA, USA), at 593 nm. Deionized water was used as a blank. FeSO4 was used for the calibration curve. The values of FRAP were expressed as µmol of Fe (II).

Ferritin = assay: Labile iron inhibition test (iron release from ferritin by superoxide); assay type: biochemical
Procedure: The tested mixture was irradiated with a fluorescent lamp at room temperature for 90 min. Labile iron was measured, as noted previously.

Row | Compound | IC50, Total antioxidant Capacity [1] | IC50 [2] | Free Radical Inhibition Activity IC50, DPPH [3] | scavenging capacity for NO ([4]; 0.5 mg/mL) | scavenging capacity for NO ([4]; 1 mg/mL) | scavenging capacity for NO ([4]; 3 mg/mL) | scavenging capacity for NO ([4]; 5 mg/mL) | scavenging capacity for NO ([4]; starting value (lowest concentration)) | IC50, Nitric oxide ([4]; tested 0.1 to 5 mg/mL) | Free Radical Inhibition Activity IC50, FRAP [5] | percent inhibition of iron release from ferritin (Ferritin; at 10 μg) | percent inhibition of iron release from ferritin (Ferritin; at 50 μg) | percent inhibition of iron release from ferritin (Ferritin; at 100 μg) | IC50, Labile Iron (Ferritin; iron release from ferritin by superoxide)
1 | O=C1O[C@H]([C@@H](O)CO)C(O)=C1O [VC, vitamin C] | 3005.29 ± 427.80 µg/mL (≈ 17.1 mM) | < 100 µg/mL | 880 ± 12.89 µg/mL | 40.92% | 29.57% | 55.12% | 56.55% | 59.10% | 2710 ± 65.98 µg/mL (≈ 15.4 mM) |  |  |  |  | 
2 | C[C@@H]1O[C@@H](OC[C@H]2O[C@@H](Oc3c(-c4ccc(O)c(O)c4)oc4cc(O)cc(O)c4c3=O)[C@H](O)[C@@H](O)[C@@H]2O)[C@H](O)[C@H](O)[C@H]1O [Rutin] |  |  |  |  |  |  |  |  |  | 533 ± 22.85 µg/mL | 85.32 ± 0.56% | 90.30 ± 0.01% | 96.65 ± 0.01% | 
3 | O=C(O)c1cc(O)c(O)c(O)c1 [Gallic acid, gallic acid] |  |  |  |  |  |  |  |  |  |  | 50.68 ± 0.18% | 59.22 ± 0.81% | 68.55 ± 0.38% | 4.86 ± 0.23 µg/mL (≈ 0.0286 mM)
4 | Cc1c(C)c2c(c(C)c1O)CCC(C)(C(=O)O)O2 (centres unmarked) [Trolox] |  |  |  |  |  |  |  |  |  |  | 39.33 ± 0.54% | 84.79 ± 3.00% | 87.87 ± 1.87% | 
